Values of other authors as cited in patent publication US10434065B2, “Microfluidic liposome synthesis, purification and active drug loading” (University of Maryland, College Park, priority 2013, dated 2019).
Counter-ions that a name gives are not always drawn.

SMILES: CN(C)c1ccc2cc3ccc(N(C)C)cc3nc2c1 [AO, Acridine Orange hydrochloride]
- pKa: 10.4
